Reference: patent US8129417B2, “Substituted octahydrocyclopenta[C]pyrrol-4-amines as calcium channel blockers” (Abbott Laboratories, priority 2008, dated 2012)

How the values were obtained:
human Cav2.2 = human Cav2.2 (Homo sapiens, UniProt Q00975); test: Assessment of calcium channel activity using FLIPR (Ca2+ influx in IMR32 cells); format: cell-based; settings: 60 minute pre-incubation with compound, 2 μM nifedipine, depolarized with 80 mM KCl
In short: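 IC50 came from sigmoidal non-linear regression of percent inhibition, relative to uninhibited activity, across compound concentrations. Calcium influx was measured by FLIPR in IMR32 cells plated at 1-1.2×10^5 cells/well and cultured 48 h at 37 °C.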

Sprague Dawley rats = test: Capsaicin induced secondary mechanical hyperalgesia model; format: in vivo; settings: po, 1 h, read-out: % inhibition @ 30 mg/kg p.o., 60 minutes before testing, secondary mechanical hyperalgesia 180 minutes after intraplantar capsaicin, rat
Method: (ii) In Vivo Data—Capsaicin Induced Secondary Mechanical Hyperalgesia Model:
Sprague Dawley rats were briefly restrained, and capsaicin was administered at 10 μg in 10 μL of vehicle by intraplantar injection into the center of the right hind paw. Secondary mechanical hyperalgesia (SMH) was measured at the heel away from the site of injection 180 minutes following capsaicin exposure. Compounds and gabapentin (positive control), were administered p.o. 60 minutes before testing (2 hours after capsaicin) or i.p. 30 minutes before testing (2.5 hours after capsaicin). SMH was measured using calibrated von Frey filaments (Stoelting, Woodale, Ill.). Following the 1 hour habituation in the testing room, rats were moved to individual plexiglass chambers that sit on top of a wire mesh to allow for access for stimulation of the plantar surface of the hind paws. Rats were allowed to acclimate to the new chambers for 15 minutes before the onset of testing. The paw withdrawal threshold was determined by increasing and decreasing stimulus intensity (force: g) and calculated using Dixon's up-down method (Chaplan, S. R.; Bach, F. W.; Pogrel, J. W.; Chung, J. M.; Yaksh, T. L.; Quantitative assessment of tactile allodynia in the rat paw. J. Neuroscience Methods 1994, 53(1), 55-63.). The filaments (maximum force of 15.0 g) were held in place for 8 seconds or until there was a withdrawal response from the mechanical stimulation.

Sequence of human Cav2.2 (Q00975 whole entry): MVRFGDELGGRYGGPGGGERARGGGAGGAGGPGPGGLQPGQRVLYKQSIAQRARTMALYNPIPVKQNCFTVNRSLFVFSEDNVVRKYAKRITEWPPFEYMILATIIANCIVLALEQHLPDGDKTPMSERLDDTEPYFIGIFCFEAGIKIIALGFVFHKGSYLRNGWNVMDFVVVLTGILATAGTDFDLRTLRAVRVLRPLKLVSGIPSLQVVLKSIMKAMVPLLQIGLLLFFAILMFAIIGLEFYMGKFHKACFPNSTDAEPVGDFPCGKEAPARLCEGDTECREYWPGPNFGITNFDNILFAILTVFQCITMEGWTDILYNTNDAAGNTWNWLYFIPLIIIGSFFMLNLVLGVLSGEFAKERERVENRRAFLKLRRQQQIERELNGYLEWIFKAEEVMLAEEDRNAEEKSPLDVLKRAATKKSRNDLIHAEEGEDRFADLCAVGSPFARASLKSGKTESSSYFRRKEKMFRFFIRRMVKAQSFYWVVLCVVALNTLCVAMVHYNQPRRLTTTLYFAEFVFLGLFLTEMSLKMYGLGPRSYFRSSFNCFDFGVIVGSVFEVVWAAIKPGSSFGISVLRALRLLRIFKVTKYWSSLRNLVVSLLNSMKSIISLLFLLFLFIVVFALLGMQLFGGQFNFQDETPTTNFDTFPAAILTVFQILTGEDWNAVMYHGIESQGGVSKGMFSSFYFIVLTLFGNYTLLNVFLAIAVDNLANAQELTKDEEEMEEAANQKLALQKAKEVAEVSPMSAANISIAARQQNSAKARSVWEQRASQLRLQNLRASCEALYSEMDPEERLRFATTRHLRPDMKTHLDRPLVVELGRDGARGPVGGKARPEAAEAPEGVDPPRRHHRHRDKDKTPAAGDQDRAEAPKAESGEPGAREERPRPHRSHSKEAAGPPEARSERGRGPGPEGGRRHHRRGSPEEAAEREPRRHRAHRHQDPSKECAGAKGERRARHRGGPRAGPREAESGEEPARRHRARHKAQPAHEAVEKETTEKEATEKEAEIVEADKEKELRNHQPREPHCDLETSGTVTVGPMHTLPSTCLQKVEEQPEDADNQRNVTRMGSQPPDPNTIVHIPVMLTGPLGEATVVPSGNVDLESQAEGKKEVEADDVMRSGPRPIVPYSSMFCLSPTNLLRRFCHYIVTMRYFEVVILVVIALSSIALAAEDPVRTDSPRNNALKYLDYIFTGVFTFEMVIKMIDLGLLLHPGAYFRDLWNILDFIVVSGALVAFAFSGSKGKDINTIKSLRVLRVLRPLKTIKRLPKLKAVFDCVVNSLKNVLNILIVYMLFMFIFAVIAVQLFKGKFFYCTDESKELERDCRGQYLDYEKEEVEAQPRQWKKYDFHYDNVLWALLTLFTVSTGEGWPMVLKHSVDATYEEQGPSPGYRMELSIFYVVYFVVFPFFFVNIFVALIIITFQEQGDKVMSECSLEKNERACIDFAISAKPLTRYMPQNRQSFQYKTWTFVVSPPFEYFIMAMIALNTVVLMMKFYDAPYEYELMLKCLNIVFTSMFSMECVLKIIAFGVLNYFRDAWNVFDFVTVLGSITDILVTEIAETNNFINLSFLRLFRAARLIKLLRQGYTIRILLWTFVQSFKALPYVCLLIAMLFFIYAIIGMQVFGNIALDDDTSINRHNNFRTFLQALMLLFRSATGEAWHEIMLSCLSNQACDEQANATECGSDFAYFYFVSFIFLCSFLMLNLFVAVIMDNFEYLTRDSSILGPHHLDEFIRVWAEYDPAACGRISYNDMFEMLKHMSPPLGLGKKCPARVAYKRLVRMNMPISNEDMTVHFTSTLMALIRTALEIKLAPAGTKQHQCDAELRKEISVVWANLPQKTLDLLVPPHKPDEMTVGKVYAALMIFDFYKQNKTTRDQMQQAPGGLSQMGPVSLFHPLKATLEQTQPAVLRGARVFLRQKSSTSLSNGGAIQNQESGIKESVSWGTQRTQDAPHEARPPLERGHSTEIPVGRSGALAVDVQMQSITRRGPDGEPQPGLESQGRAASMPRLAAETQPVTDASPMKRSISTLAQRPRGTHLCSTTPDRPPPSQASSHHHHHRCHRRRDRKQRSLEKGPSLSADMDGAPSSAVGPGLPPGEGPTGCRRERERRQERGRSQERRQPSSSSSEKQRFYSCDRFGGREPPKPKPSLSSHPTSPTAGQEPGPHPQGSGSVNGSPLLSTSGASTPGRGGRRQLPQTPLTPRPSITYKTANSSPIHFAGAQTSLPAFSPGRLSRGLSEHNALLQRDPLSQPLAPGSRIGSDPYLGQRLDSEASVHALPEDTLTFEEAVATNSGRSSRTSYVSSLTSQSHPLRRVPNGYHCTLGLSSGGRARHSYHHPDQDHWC
Sequence of human Cav2.2 (P54289 25-946 partner limits assumed): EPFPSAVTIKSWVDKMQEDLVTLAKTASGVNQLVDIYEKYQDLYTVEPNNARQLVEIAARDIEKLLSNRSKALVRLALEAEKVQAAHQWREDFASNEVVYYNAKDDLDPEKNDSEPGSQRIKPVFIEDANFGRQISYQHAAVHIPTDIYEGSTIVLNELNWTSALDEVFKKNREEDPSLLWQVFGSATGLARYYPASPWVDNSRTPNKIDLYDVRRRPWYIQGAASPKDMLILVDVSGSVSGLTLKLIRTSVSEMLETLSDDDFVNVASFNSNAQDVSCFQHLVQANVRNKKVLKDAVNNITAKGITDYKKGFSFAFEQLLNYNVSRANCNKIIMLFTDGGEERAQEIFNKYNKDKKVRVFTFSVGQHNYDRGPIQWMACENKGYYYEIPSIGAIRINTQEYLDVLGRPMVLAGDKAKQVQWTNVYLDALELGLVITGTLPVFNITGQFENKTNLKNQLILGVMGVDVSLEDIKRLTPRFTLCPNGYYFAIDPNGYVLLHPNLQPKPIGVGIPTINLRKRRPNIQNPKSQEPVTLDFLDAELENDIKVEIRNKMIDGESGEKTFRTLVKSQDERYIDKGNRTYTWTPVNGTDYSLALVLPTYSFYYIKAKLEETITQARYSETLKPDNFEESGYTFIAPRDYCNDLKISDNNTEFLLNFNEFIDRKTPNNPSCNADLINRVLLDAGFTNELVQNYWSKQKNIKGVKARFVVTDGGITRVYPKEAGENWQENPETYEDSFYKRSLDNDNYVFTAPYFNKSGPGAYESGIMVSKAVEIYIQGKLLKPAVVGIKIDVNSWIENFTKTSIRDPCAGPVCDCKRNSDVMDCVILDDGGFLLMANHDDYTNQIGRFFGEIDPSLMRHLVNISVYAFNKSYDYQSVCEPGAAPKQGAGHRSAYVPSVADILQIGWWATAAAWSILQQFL
Sequence of human Cav2.2 (P54289 947-1103 partner limits assumed): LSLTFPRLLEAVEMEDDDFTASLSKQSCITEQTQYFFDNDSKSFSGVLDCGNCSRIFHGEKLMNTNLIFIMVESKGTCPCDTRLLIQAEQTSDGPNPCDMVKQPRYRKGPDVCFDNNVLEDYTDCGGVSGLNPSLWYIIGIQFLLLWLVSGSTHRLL
Sequence of human Cav2.2 (P54284 whole entry partner): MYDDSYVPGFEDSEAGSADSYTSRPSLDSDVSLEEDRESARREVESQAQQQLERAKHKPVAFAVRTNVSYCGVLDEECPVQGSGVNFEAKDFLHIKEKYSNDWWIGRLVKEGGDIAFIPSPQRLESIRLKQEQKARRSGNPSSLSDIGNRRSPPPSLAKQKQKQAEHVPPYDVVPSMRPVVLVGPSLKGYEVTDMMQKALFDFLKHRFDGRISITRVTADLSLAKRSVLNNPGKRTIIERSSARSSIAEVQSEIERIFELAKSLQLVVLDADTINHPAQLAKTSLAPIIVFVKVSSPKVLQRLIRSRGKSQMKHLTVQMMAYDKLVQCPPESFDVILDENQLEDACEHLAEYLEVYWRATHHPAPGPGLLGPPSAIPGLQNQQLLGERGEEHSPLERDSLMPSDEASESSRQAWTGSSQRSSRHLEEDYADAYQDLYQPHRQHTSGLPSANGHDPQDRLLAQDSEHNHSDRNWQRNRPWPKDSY

`CC(C)N[C@@H](CC(C)(C)C)C(=O)N[C@H]1CC[C@@H]2CN(C(=O)[C@H](CC(C)(C)C)NC(C)C)C[C@@H]21` [Example 488, N^2-isopropyl-N^1-[(3aR,4S,6aS)-2-(N-isopropyl-4-methyl-L-leucyl)octahydrocyclopenta[c]pyrrol-4-yl]-4-methyl-L-leucinamide] was tested, and the IC50 (human Cav2.2) was 7.43 µM and the inhibition in vivo at 30 mg/kg (Sprague Dawley rats) was 55%.
In the case of `CC(C)N[C@@H](CC(C)(C)C)C(=O)N[C@H]1CC[C@@H]2CN(C(=O)[C@H](Cc3ccccc3)NC(C)C)C[C@@H]21` [Example 489, N^2-isopropyl-N^1-[(3aR,4S,6aS)-2-(N-isopropyl-L-phenylalanyl)octahydrocyclopenta[c]pyrrol-4-yl]-4-methyl-L-leucinamide], the IC50 (human Cav2.2) is reported as 9.76 µM and the inhibition in vivo at 30 mg/kg (Sprague Dawley rats) is reported as 47%.
In the case of `O=C(N[C@H]1CC[C@@H]2CN(c3cccc(C(F)(F)F)n3)C[C@@H]21)c1ccc(F)cc1` [Example 560, 4-fluoro-N-{(3aR,4S,6aS)-2-[6-(trifluoromethyl)pyridin-2-yl]octahydrocyclopenta[c]pyrrol-4-yl}benzamide], the IC50 (human Cav2.2) is reported as 1.45 µM and the inhibition in vivo at 30 mg/kg (Sprague Dawley rats) is reported as 42%.
